Data taken from article PMC10175918 (Communications Biology, 2023).
Read-outs that look alike come from different tables or passages of the source.

Legend:
Test in all cases: TGFα-shedding assay-based GPCR screening with chimeric Gα subunit proteins
Format in all cases: cell-based
Conditions in all cases: 10µM, Favipiravir 100μM
[1] = biological target: T1, 348 GPCRs (Homo sapiens, UniProt O14804)
T1 construct: expressed in transfected cells; host or cells: HEK293A
T1 sequence (O14804 1-337): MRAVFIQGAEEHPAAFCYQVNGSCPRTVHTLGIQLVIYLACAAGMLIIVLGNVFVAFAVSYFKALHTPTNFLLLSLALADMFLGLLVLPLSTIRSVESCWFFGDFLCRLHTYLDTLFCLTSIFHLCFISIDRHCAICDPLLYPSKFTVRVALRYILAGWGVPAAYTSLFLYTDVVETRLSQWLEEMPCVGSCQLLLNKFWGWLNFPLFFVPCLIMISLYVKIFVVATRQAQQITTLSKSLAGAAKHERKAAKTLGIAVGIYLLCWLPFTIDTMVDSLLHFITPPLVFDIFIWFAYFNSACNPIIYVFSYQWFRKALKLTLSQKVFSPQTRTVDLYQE

[2] = biological target: 348 GPCRs (Homo sapiens, UniProt P25021)
Chain of 348 GPCRs (Homo sapiens, UniProt P25021) (P25021 whole entry): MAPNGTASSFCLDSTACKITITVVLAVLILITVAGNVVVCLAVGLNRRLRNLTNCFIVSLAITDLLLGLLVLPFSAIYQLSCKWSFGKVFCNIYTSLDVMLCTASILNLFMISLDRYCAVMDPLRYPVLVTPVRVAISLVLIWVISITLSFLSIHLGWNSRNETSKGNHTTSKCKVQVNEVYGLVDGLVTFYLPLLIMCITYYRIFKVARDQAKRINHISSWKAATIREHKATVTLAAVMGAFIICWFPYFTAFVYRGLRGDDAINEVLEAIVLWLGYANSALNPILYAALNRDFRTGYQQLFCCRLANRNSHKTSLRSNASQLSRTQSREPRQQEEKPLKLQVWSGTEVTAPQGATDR

[3] = biological target: T2, 348 GPCRs (Homo sapiens, UniProt P30988)
T2 sequence (P30988 25-474): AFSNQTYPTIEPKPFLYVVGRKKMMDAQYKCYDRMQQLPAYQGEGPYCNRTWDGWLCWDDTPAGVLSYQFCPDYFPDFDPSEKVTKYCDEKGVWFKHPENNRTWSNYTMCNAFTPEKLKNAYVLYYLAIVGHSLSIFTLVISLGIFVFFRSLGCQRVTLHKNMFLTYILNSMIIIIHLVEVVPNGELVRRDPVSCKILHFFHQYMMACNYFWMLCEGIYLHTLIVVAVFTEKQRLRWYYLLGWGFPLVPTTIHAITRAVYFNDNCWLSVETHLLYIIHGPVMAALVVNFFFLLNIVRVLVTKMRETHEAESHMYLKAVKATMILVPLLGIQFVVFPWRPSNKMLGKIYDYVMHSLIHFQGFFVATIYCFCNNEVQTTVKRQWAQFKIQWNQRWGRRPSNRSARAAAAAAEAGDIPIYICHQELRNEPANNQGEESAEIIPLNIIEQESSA

[4] = biological target: T3, 348 GPCRs (Homo sapiens, UniProt Q16538)
T3 construct: expressed in transfected cells; host or cells: HEK293A
T3 sequence (Q16538 whole entry): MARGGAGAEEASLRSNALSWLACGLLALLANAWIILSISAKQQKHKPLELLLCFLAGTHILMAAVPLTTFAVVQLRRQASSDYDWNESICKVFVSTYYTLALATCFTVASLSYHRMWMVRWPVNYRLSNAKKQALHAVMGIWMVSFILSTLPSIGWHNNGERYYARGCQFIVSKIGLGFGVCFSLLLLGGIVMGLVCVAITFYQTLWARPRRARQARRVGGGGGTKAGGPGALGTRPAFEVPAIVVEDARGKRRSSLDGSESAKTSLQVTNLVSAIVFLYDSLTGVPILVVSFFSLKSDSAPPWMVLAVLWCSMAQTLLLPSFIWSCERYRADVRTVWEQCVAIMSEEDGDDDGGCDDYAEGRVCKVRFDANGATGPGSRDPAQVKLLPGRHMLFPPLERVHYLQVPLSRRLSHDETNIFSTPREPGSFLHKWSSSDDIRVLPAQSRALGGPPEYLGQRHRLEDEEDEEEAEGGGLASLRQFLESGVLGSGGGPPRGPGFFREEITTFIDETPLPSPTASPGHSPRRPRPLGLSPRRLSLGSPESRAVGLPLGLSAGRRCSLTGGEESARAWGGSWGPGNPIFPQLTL

[5] = biological target: T4, 348 GPCRs (Homo sapiens, UniProt Q86SM5)
T4 construct: expressed in transfected cells; host or cells: HEK293A
T4 sequence (Q86SM5 1-289): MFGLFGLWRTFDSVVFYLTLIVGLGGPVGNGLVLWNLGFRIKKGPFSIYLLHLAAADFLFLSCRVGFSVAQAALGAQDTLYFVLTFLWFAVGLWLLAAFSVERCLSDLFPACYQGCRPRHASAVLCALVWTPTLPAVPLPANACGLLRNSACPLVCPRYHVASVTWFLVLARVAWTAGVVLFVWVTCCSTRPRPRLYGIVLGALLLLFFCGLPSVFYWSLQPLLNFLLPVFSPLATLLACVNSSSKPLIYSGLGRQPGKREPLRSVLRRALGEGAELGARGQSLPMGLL

[6] = biological target: T5, 348 GPCRs (Homo sapiens, UniProt Q8TDS5)
T5 construct: expressed in transfected cells; host or cells: HEK293A
T5 sequence (Q8TDS5 whole entry): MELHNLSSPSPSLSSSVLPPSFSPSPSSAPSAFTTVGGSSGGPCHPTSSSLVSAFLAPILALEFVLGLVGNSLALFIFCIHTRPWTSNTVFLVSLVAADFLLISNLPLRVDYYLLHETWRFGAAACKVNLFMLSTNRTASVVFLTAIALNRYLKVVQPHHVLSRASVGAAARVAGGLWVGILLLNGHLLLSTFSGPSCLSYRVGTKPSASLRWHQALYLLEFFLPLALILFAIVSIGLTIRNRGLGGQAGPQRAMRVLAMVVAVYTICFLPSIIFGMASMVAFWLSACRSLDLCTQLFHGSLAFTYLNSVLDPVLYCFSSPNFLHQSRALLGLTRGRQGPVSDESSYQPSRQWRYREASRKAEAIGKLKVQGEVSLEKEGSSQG

[7] = biological target: T6, 348 GPCRs (Homo sapiens, UniProt Q96P65)
T6 construct: expressed in transfected cells; host or cells: HEK293A
T6 sequence (Q96P65 1-431): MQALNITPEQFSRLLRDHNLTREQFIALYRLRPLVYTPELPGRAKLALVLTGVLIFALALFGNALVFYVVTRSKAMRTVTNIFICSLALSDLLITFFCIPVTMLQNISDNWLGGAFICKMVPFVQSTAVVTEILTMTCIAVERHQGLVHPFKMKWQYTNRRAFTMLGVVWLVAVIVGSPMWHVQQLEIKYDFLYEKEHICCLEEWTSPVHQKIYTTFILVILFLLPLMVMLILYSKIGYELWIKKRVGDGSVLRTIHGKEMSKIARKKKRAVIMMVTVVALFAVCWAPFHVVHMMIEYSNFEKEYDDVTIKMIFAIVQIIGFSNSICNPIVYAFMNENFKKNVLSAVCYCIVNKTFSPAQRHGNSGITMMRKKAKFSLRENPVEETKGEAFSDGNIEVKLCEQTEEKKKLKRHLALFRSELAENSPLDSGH

[8] = biological target: T7, 348 GPCRs (Homo sapiens, UniProt Q9NYW7)
T7 construct: expressed in transfected cells; host or cells: HEK293A
T7 sequence (Q9NYW7 1-299): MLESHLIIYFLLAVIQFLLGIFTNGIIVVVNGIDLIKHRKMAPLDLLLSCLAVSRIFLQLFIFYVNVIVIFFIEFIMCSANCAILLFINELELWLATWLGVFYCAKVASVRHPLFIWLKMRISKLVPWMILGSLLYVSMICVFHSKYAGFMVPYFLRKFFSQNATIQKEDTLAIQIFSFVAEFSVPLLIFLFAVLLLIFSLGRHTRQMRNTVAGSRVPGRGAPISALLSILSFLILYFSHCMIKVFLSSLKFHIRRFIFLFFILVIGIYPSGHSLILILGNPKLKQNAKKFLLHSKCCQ

[9] = TAAR5 (trace amine associated receptor 5), read-out: % GPCR activation compared to TPA
[10] = H2 (histamine receptor H2), read-out: % GPCR activation compared to TPA
[11] = CALCR (calcitonin receptor), read-out: % GPCR activation compared to TPA
[12] = GPR162 (G Protein-Coupled Receptor 162), read-out: % GPCR activation compared to TPA
[13] = MRGPRG (MAS-related GPR, member G), read-out: % GPCR activation compared to TPA
[14] = OXER1 (oxoeicosanoid receptor 1), read-out: % GPCR activation compared to TPA
[15] = QRFP (pyroglutamylated RFamide peptide receptor), read-out: % GPCR activation compared to TPA
[16] = TAS2R1 (taste receptor, type 2, member 1), read-out: % GPCR activation compared to TPA
[17] = read-out: % GPCR activation compared to TPA, TAAR5 (trace amine associated receptor 5)
[18] = read-out: % GPCR activation compared to TPA, H2 (histamine receptor H2)
[19] = read-out: % GPCR activation compared to TPA, CALCR (calcitonin receptor)
[20] = read-out: % GPCR activation compared to TPA, GPR162 (G Protein-Coupled Receptor 162)
[21] = read-out: % GPCR activation compared to TPA, MRGPRG (MAS-related GPR, member G)
[22] = read-out: % GPCR activation compared to TPA, OXER1 (oxoeicosanoid receptor 1)
[23] = read-out: % GPCR activation compared to TPA, QRFP (pyroglutamylated RFamide peptide receptor)
[24] = read-out: % GPCR activation compared to TPA, TAS2R1 (taste receptor, type 2, member 1)

SMILES	activation at 100 µM [1, 9] [%]	activation at 10 µM [2, 10] [%]	activation at 100 µM [3, 11] [%]	activation at 10 µM [4, 12] [%]	activation at 100 µM [5, 13] [%]	activation at 10 µM [6, 14] [%]	activation at 100 µM [7, 15] [%]	activation at 100 µM [8, 16] [%]	activation at 100 µM [1, 17] [%]	activation at 10 µM [2, 18] [%]	activation at 100 µM [3, 19] [%]	activation at 10 µM [4, 20] [%]	activation at 100 µM [5, 21] [%]	activation at 10 µM [6, 22] [%]	activation at 100 µM [7, 23] [%]	activation at 100 µM [8, 24] [%]
NC(=O)c1nc(F)cnc1O [favipiravir, 6-fluoro-3-hydroxy-2-pyrazinecarboxamide]	-0.417	0.663	-3.06	-1.13	-0.36	0.649	-2.34	-0.27	–	–	–	–	–	–	–	–
CCC(CC)COC(=O)[C@H](C)N[P@](=O)(OC[C@H]1O[C@@](C#N)(c2ccc3c(N)ncnn23)[C@H](O)[C@@H]1O)Oc1ccccc1 [remdesivir]	–	–	–	–	–	–	–	–	0.868	2.05	1.27	2.55	-0.00101	2.06	-1.33	0.931
CC(C)OC(=O)[C@H](C)N[P@](=O)(OC[C@H]1O[C@@H](n2ccc(=O)[nH]c2=O)[C@](C)(F)[C@@H]1O)Oc1ccccc1 [sofosbuvir]	–	–	–	–	–	–	–	–	-2.96	-0.476	-2.01	0.48	-0.28	-1.86	-1.05	-0.974

The next lines start with results.

activation at 100 µM [1, 9] [%]	activation at 10 µM [2, 10] [%]	activation at 100 µM [3, 11] [%]	activation at 10 µM [4, 12] [%]	activation at 100 µM [5, 13] [%]	activation at 10 µM [6, 14] [%]	activation at 100 µM [7, 15] [%]	activation at 100 µM [8, 16] [%]	SMILES	activation at 100 µM [1, 17] [%]	activation at 10 µM [2, 18] [%]	activation at 100 µM [3, 19] [%]	activation at 10 µM [4, 20] [%]	activation at 100 µM [5, 21] [%]	activation at 10 µM [6, 22] [%]	activation at 100 µM [7, 23] [%]	activation at 100 µM [8, 24] [%]
0.608	-1.14	-3.54	-0.758	-1.34	-0.233	-0.975	-0.408	N#C[C@@]1(c2ccc3c(N)ncnn23)O[C@H](CO)[C@@H](O)[C@H]1O [GS441524]	–	–	–	–	–	–	–	–
-1.58	-0.335	-0.059	-1.64	-1.58	-0.119	-2.8	-0.93	CC(C)C(=O)OC[C@H]1O[C@@H](n2ccc(NO)nc2=O)[C@H](O)[C@@H]1O [molnupiravir]	–	–	–	–	–	–	–	–
